Some results are limits rather than exact numbers.

The target in test [1] is ATM enzyme (human) (Homo sapiens, UniProt Q13315). Kind of test: ATM kinase assay (HTRF, GST-cMyc-p53 substrate). In kind it is biochemical. To be noted: for inhibition at 0.01 µM: C 0.01 μm (final concentration of compound); for inhibition at 0.1 µM: C 0.1 μm (final concentration of compound). Here is the method: In Vitro Inhibition of ATM by N,N-dimethyl-3-(4-(1-(tetrahydro-2H-pyran-4-yl)-[1,2,4]triazolo[4,3-a]quinoxalin-8-yl)phenoxy)propan-1-amine and its Analogues was Determined by ATM Kinase Assay
Sequence of ATM enzyme (human) (Q13315 whole entry): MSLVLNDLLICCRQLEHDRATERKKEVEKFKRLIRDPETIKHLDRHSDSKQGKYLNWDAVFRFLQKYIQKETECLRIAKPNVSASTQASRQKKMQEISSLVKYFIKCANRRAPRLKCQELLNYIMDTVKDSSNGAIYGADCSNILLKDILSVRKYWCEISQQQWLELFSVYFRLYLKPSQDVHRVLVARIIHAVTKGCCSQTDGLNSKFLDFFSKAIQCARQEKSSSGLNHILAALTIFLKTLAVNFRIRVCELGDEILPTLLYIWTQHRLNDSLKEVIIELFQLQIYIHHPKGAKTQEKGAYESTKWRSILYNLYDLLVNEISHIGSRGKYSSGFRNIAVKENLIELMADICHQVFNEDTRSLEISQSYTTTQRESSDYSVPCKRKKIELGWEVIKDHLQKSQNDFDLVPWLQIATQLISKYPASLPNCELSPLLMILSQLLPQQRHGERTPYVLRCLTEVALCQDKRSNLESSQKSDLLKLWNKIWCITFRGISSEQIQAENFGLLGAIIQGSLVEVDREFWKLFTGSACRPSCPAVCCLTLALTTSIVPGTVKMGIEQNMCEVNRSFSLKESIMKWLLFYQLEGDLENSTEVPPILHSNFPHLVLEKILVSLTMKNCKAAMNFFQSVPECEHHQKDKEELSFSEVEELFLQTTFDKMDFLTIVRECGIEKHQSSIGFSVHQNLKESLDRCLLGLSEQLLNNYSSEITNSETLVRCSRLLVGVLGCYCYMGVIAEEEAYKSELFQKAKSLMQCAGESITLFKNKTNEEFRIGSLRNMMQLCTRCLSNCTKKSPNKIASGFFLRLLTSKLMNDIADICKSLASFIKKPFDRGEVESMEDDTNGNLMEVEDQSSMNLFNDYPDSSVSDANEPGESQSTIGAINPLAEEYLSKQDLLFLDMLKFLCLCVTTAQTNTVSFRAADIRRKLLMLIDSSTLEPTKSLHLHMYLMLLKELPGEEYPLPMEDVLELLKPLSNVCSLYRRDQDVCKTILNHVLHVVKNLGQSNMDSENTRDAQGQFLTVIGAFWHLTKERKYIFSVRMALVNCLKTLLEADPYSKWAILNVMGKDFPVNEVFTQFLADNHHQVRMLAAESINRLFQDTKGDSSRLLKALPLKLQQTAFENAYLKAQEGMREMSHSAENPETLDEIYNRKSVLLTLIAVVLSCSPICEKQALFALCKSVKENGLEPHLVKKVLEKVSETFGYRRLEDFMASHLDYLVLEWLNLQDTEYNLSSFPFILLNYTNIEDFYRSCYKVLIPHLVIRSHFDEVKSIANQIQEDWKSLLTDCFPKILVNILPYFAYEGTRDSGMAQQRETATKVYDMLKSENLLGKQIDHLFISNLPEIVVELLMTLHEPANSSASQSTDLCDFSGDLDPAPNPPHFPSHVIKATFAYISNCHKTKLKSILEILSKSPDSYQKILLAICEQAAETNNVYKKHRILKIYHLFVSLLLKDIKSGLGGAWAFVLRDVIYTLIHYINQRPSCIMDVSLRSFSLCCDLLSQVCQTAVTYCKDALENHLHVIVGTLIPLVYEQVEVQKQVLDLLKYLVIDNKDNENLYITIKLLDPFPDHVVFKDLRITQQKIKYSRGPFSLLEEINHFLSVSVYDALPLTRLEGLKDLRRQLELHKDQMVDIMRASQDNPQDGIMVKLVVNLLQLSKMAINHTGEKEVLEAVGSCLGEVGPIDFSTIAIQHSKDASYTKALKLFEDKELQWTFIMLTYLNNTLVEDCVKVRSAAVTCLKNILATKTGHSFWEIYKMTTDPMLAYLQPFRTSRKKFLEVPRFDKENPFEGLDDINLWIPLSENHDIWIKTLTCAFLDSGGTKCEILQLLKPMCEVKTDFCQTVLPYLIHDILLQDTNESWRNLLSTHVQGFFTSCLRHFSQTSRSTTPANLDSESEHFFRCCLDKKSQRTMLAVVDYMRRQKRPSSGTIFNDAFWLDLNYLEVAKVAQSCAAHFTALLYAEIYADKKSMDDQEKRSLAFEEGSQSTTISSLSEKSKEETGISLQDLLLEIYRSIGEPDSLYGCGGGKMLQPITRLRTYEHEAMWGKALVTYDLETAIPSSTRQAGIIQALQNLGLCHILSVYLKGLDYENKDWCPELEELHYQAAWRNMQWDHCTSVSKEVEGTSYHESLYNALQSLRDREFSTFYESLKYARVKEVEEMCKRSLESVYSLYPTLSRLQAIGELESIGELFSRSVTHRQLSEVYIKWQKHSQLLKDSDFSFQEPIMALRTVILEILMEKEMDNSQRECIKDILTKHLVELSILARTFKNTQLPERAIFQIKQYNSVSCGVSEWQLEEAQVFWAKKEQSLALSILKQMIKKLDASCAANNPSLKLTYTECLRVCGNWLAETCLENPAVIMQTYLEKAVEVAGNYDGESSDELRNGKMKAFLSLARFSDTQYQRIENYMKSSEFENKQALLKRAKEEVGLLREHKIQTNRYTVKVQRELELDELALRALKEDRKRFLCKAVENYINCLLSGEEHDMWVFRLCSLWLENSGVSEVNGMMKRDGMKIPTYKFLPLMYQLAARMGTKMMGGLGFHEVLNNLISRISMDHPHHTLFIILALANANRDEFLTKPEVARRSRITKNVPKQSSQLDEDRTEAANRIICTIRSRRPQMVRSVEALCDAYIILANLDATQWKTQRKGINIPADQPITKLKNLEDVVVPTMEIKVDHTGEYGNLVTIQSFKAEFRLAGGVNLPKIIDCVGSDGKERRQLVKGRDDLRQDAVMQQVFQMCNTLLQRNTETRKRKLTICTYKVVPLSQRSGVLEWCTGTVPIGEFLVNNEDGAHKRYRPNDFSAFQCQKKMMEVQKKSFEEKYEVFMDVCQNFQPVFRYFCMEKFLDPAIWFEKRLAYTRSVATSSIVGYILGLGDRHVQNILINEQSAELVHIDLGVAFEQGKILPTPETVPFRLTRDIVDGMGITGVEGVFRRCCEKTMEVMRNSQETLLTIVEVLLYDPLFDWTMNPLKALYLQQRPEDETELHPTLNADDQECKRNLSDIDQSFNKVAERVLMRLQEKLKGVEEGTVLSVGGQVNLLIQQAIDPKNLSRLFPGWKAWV
The reaction was initiated by the addition of a Mg/ATP mixture and incubation for 30 minutes at room temperature, the reaction was quenched by the addition of a stop solution containing EDTA. Finally, the detection buffer containing the d2-labeled anti-GST monoclonal antibody and the europium-labeled anti-phospho p53 (Ser15) antibody was added. The plate was then read in time resolved fluorescence mode and the homogeneous time resolved fluorescence (HTRF) signal was determined according to the equation: HTRF=10000×(Em665nm/Em620nm). Each compound sample was repeated in duplicate. The experiment negative control was all components except of the ATM enzyme and the positive control contained all components. All reactions were quenched by adding EDTA.
ATM kinase inhibition was detected by using the method described above. The curve equation for calculating IC50 value is as follows:
[formula] • wherein, C is the concentration of compound and D is the slope factor.
On the technique in general: TR-FRET usually uses a lanthanide donor and a delayed reading to cut background.

In test [2] the test system is human colon cancer cell SW620. As to the kind of experiment: MTT assay, growth of SW620 cells, compounds combined with CPT-11. In kind it is cell-based. To be noted: combined with CPT-11 (205 nM medium), 5 days, MTT. Here is the method:
Inhibitory effects of N,N-dimethyl-3-(4-(1-(tetrahydro-2H-pyran-4-yl)-[1,2,4]triazolo[4,3-a]quinoxalin-8-yl)phenoxy)propan-1-amine and its Analogues Combined with CPT-11 on the Growth of Human Colon Cancer Cell SW620 were Determined by MTT Assay
(§1) SW620 cells were digested by trypsinase, centrifuged at 800 rpm for 5 minutes, the supernatant was discarded, resuspended with fresh medium (RPMI 1640 medium+10% FBS) and counted. The cells were seeded into 96-well cell culture plate with appropriate cell density and incubated overnight in a 37° C. 5% CO2 incubator. The stock solutions of the tested compound and the reference compound AZD0156 were serially diluted to 8 concentrations by DMSO at the ratios of 1:3 and 1:10, respectively, the first concentration was 10 μM or 1 μM, and the last concentration was negative control of DMSO (0 μM, the final concentration of DMSO was 1%). 5 μL of each concentration was added to 120 μL of medium (25 times diluted) and mixed by shaking. The overnight cells were taken and the culture medium was removed, 195 μL of fresh medium containing 205 nM CPT-11 was added to each well, and 5 μL of diluted medium containing the corresponding concentration of the tested sample was added respectively, and the culture plate was then placed in the 5% CO2 cell culture incubator at 37° C. for 5 days. After removing the original solution, 100 pt of fresh serum-free DMEM medium containing MTT (0.5 mg/mL) was added to each well, the culture was continued. After 4 hours, the original solution was removed, 100 μL of DMSO was added into each well, the 96-well plates were shaken away from light for 10 minutes and placed in a multi-function reader to read the absorbance at the wavelength of 552/630/690 nm. GraphPad Prism 6.0 was used to analyze the data. The inhibitory activity of compounds on cell proliferation was plotted based on cell viability and compound concentration. The IC50 value was fitted by a sigmoidal dose response curve equation Y=100/(1+10^(Log C−Log IC50)), where C was the concentration of compound.
Table 3 summarizes the inhibitory effects of compounds combined with CPT-11 on the growth of human colon cancer cell SW620 (IC50).
On the technique in general: Formazan colour is commonly taken as a measure of viable cells.

Test [3] has as its system human breast cancer cell MDA-MB-468. As to the kind of experiment: MTT assay, growth of MDA-MB-468 cells. In kind it is cell-based. To be noted: 7 days, MTT. Here is the method: Inhibitory Effects of N,N-dimethyl-3-(4-(1-(tetrahydro-2H-pyran-4-yl)-[1,2,4]triazolo[4,3-a]quinoxalin-8-yl)phenoxy)propan-1-amine and its Analogues on the Growth of Human Breast Cancer Cell MDA-MB-468 were Determined by MTT Assay
as §1, with “MDA-MB-468 cells” for “SW620 cells”, “1:10, respectively:” for “1:10, respectively,”, “was 100” for “was 10”, “medium” for “medium containing 205 nM CPT-11”, “for 7 days (On the fourth day, the medium containing drugs was removed and fresh medium containing drugs was added for continuous cultivation).” for “for 5 days.”, “100 μL” for “100 pt”
Table 4 summarizes the inhibitory effects of compounds on the growth of human breast cancer cell MDA-MB-468 (IC50).

[4] abbreviates: Homo sapiens, MDA-MB-468, 168 h.
[5] abbreviates: 0.5 h, read-out: Inh (%) of ATM kinase.
Where [6] appears, read: 0.5 h, C 1 μm (final concentration of compound), read-out: Inh (%) of ATM kinase.

Consider `CN(C)CCCOc1ccc(-c2ccc3ncc4c(c3c2)n(C2CCOCC2)c(=O)n4C)cn1` [AZD0156, reference compound], for which, in test [1] (C 1 μm (final concentration of compound)), the “Inh (%) of ATM kinase” value is on record as 100%. Also, the 50% inhibitory concentration (IC50) (usually the midpoint of a concentration-inhibition curve) in test [2] amounted to 10 nM; in test [3], 10.9 nM.
On to `CN(C)CCCOc1ccc(-c2ccc3ncc4nnc(C5CCOCC5)n4c3c2)cc1` [Example 4, N,N-dimethyl-3-(4-(1-(tetrahydro-2H-pyran-4-yl)-[1,2,4]triazolo[4,3-a]quinoxalin-8-yl)phenoxy)propan-1-amine], for which the IC50 was determined as 9 nM in test [1] (10-concentration dilution series, read-out: IC50, inhibition of ATM kinase); 328 nM in test [2] (Homo sapiens, SW-620, 120 h); 950 nM in test [3] (setting [4]). Further, the inhibition at 10 µM in test [1] (0.5 h, C 10 μm (final concentration of compound), read-out: Inh (%) of ATM kinase) turned out to be 100%. Also, the “inhibitory effect on ATM kinase (in words)” value in test [1] (ATM kinase (human) assay) is on record as “good inhibitory effect”.
On to `CN(C)CCCOc1ccc(-c2ccc3ncc4nnc(C5CCOCC5)n4c3c2)nc1` [Example 5, N,N-dimethyl-3-((6-(1-(tetrahydro-2H-pyran-4-yl)-[1,2,4]triazolo[4,3-a]quinoxalin-8-yl)pyridin-3-yl)oxy)propan-1-amine], for which, in test [1] (setting [5]), the inhibition at 0.01 µM amounted to 7%. Further, the inhibition at 0.1 µM in test [1] (setting [5]) was 47%. Moreover, in test [1] (setting [6]), the inhibition at 1 µM worked out at 96%. Moreover, the IC50 was greater than 100000 nM in test [2] (Homo sapiens, SW-620, 120 h) and greater than 100000 nM in test [3] (setting [4]).
As for `CN(C)CCCN(C)c1ccc(-c2ccc3ncc4nnc(C5CCOCC5)n4c3c2)cc1` [Example 11, N-(3-(dimethylamino)propyl)-N-methyl-4-(1-(tetrahydro-2H-pyran-4-yl)-[1,2,4]triazolo[4,3-a]quinoxalin-8-yl)aniline], the inhibition at 1 µM in test [1] (setting [6]) came to 64%. The half-inhibitory concentration (IC50) in test [2] (Homo sapiens, SW-620, 120 h) was greater than 100000 nM; in test [3] (setting [4]), greater than 100000 nM.
In the case of `CN(C)C1CCN(c2ccc(-c3ccc4ncc5nnc(C6CCOCC6)n5c4c3)cc2)CC1` [Example 12, N,N-dimethyl-1-(4-(1-(tetrahydro-2H-pyran-4-yl)-[1,2,4]triazolo[4,3-a]quinoxalin-8-yl)phenyl)piperidin-4-amine], the inhibition at 0.01 µM in test [1] (setting [5]) amounted to 50%. Also, the inhibition at 0.1 µM in test [1] (setting [5]) stood at 93%. The inhibition at 1 µM in test [1] (setting [6]) was 100%. The IC50 in test [2] (Homo sapiens, SW-620, 120 h) amounted to 173 nM; in test [3] (setting [4]) it was 236 nM.
As to `CN(C)C1CCC(c2ccc(-c3ccc4ncc5nnc(C6CCOCC6)n5c4c3)cc2)CC1` (stereo not drawn) [Example 18, N,N-dimethyl-4-(4-(1-(tetrahydro-2H-pyran-4-yl)-[1,2,4]triazolo[4,3-a]quinoxalin-8-yl)phenyl)cyclohexan-1-amine], the inhibition at 1 µM in test [1] (setting [6]) amounted to 34%. For the same compound, the half-inhibitory concentration (IC50) in test [2] (Homo sapiens, SW-620, 120 h) was greater than 100000 nM; in test [3] (setting [4]), greater than 100000 nM.
In the case of `CN(C)CCCOc1ccc(-c2ccc3ncc4nnc(N5CCCCC5)n4c3c2)cc1` [Example 20, N,N-dimethyl-3-(4-(1-(piperidin-1-yl)-[1,2,4]triazolo[4,3-a]quinoxalin-8-yl)phenoxy)propan-1-amine], in test [1] (setting [5]), the inhibition at 0.01 µM is 79%. Moreover, the inhibition at 0.1 µM in test [1] (setting [5]) was determined as 99%. Also, the inhibition at 1 µM in test [1] (setting [6]) was determined as 100%. Also, the IC50 in test [2] (Homo sapiens, SW-620, 120 h) stood at 144 nM; in test [3] (setting [4]), 122 nM.
For the compound `CN(C)CCCOc1ccc(-c2ccc3ncc4nnc(N5CCOCC5)n4c3c2)cc1` [Example 21, N,N-dimethyl-3-(4-(1-morpholino-[1,2,4]triazolo[4,3-a]quinoxalin-8-yl)phenoxy)propan-1-amine], in test [1] (setting [6]), the inhibition at 1 µM worked out at 100%. Besides, the 50% inhibitory concentration (IC50) in test [2] (Homo sapiens, SW-620, 120 h) stood at 334 nM; in test [3] (setting [4]), 372 nM.
`CN(C)CCCOc1ccc(-c2ccc3ncc4nnc(N5CCN(C)CC5)n4c3c2)cc1` [Example 22, N,N-dimethyl-3-(4-(1-(4-methylpiperazin-1-yl)-[1,2,4]triazolo[4,3-a]quinoxalin-8-yl)phenoxy)propan-1-amine]: in test [1] (setting [6]), the inhibition at 1 µM is 100%. In addition, the IC50 came to 413 nM in test [2] (Homo sapiens, SW-620, 120 h) and 422 nM in test [3] (setting [4]).
Turning to `C[C@@H]1CN(c2nnc3cnc4ccc(-c5ccc(OCCCN(C)C)c(Cl)c5)nc4n23)C[C@H](C)N1C` [Example 82, 3-(2-chloro-4-(9-((3S,5R)-3,4,5-trimethylpiperazin-1-yl)pyrido[3,2-e][1,2,4]triazolo[4,3-a]pyrazin-2-yl)phenoxy)-N,N-dimethylpropan-1-amine], the 50% inhibitory concentration (IC50) in test [2] (Homo sapiens, SW-620, 120 h) stood at 189 nM; in test [3] (setting [4]), 200 nM.
As for `C[C@@H]1CN(c2nnc3cnc4ccc(-c5ccc(OCCCN(C)C)c(C(F)(F)F)c5)nc4n23)C[C@H](C)N1C` [Example 83, N,N-dimethyl-3-(2-(trifluoromethyl)-4-(9-((3S,5R)-3,4,5-trimethylpiperazin-1-yl)pyrido[3,2-e][1,2,4]triazolo[4,3-a]pyrazin-2-yl)phenoxy)propan-1-amine], the concentration for half-maximal inhibition (IC50) in test [2] (Homo sapiens, SW-620, 120 h) was 148 nM; in test [3] (setting [4]) it was 73.4 nM.
For `C[C@@H]1CN(c2nnc3cnc4ccc(-c5ccc(N6CCC(N(C)C)CC6)cc5)nc4n23)C[C@H](C)N1C` [Example 84, N,N-dimethyl-1-(4-(9-((3S,5R)-3,4,5-trimethylpiperazin-1-yl)pyrido[3,2-e][1,2,4]triazolo[4,3-a]pyrazin-2-yl)phenyl)piperidin-4-amine], the IC50 was determined as 70.5 nM in test [2] (Homo sapiens, SW-620, 120 h) and 246 nM in test [3] (setting [4]).
Consider `C[C@@H]1CN(c2nnc3cnc4ccc(-c5ccc(N6CCC(N(C)C)CC6)c(F)c5)nc4n23)C[C@H](C)N1C` [Example 85, 1-(2-fluoro-4-(9-((3S,5R)-3,4,5-trimethylpiperazin-1-yl)pyrido[3,2-e][1,2,4]triazolo[4,3-a]pyrazin-2-yl)phenyl)-N,N-dimethylpiperidin-4-amine], for which the 50% inhibitory concentration (IC50) in test [2] (Homo sapiens, SW-620, 120 h) was determined as 41.3 nM; in test [3] (setting [4]) it was 22.2 nM.
The corresponding values for `CN(C)C1CCN(c2ccc(-c3ccc4ncc5nnc(N6CCC(N(C)C)CC6)n5c4n3)cc2)CC1` [Example 90, 1-(2-(4-(4-(dimethylamino)piperidin-1-yl)phenyl)pyrido[3,2-e][1,2,4]triazolo[4,3-a]pyrazin-9-yl)-N,N-dimethylpiperidin-4-amine] are 981 nM and greater than 10000 nM.

These data come from patent publication US10874670B2, “Substituted fused heteroaromatic compounds as kinase inhibitors and the use thereof” (IMPACT THERAPEUTICS, INC., priority 2017, dated 2020).
